Here are results for 25 compounds from US8604024B2, “Compounds for the reduction of beta-amyloid production” (Bristol-Myers Squibb Company, priority 2011, dated 2013).

Where a name gives a salt, the structure may show the parent alone. Some results are limits rather than exact numbers.

This experiment concerns Aβ1-42 production in H4 cells stably transfected with APP751 containing the Swedish mutation. Description: Cellular assay for inhibition of Aβ1-42 production (H4 APP751 SWE clone 8.20). It is filed as cell-based. To be noted: 19 h, H4 APP751 SWE clone 8.20 cells, 19 h incubation; read-out: Aβ42 cellular IC50. Here is the method:
Cellular Assays for Inhibition of Aβ1-40 and Aβ1-42 Production
H4 cells stably transfected with APP751 containing the Swedish mutation (H4 APP751 SWE clone 8.20, developed at BMS) were maintained in log phase through twice weekly passage at a 1:20 split. […] Following incubation for 19 h in 5% CO2 at 37° C., plates were briefly centrifuged (1000 rpm, 5 min). A 10 μl aliquot from each well was transferred to a second assay plate (Costar 3709) for Aβ40 measurements. Antibody cocktails were freshly prepared by dilution into 40 mM Tris-HCl (pH 7.4) with 0.2% BSA and added to assay plates. For Aβ42 measurements, antibodies specific for the Aβ42 neoepitope (565, developed at BMS; conjugated to the Wallac reagent (Perkin Elmer)) and the N-terminal sequence of Aβ peptide (26D6, developed at SIBIA; conjugated to APC (Perkin Elmer)) were mixed and 20 μl of the mixture was added to each well of the incubated cell plate yielding a final concentration of 0.8 ng/well 565 and 75 ng/well 26D6. For the Aβ40 measurements, antibodies specific for the Aβ40 neoepitope (TSD, developed at BMS; conjugated to the Wallac reagent (Perkin Elmer)) and 26D6 as described above were mixed and 20 μl of the mixture was added to the 10 μl aliquots which had been removed previously from the cell plate yielding a final concentration of 1.6 ng/well TSD and 17.5 ng/well 26D6. Assay plates containing antibodies were sealed with aluminum foil and incubated overnight at 4° C. Signal was determined using a Viewlux counter (Perkin Elmer) and IC50 values determined using curve fitting in CurveMaster (Excel Fit based).
Take `NC1=N[C@@H]2c3cc(-c4cncnc4)ccc3CCC[C@@H]2CS1` (relative stereo) [Example 1, rel-(4aS,11bS)-10-Pyrimidin-5-yl-4,4a,5,6,7,11b-hexahydro-3-thia-1-aza-dibenzo[a,c]cyclohepten-2-ylamine, bis(2,2,2-trifluoroacetate)]: the half-maximal inhibitory concentration (IC50) (as a rule, the concentration that gives 50% inhibition) was 5.2 µM.

Turning to `C[C@]12N=C(N)SC[C@H]1CCCc1ccc(-c3cncnc3)cc12` (relative stereo) [Example 2, rel-(4aS,11bS)-11b-Methyl-10-pyrimidin-5-yl-4,4a,5,6,7,11b-hexahydro-3-thia-1-aza-dibenzo[a,c]cyclohepten-2-ylamine, bis(2,2,2-trifluoroacetate)], the IC50 stood at 3.4 µM.

Consider `C[C@]12N=C(N)SC[C@H]1CCCc1ccc(NC(=O)c3ccc(Cl)cn3)cc12` (relative stereo) [Example 3, 5-Chloro-pyridine-2-carboxylic acid (rel-(4aS,11bS)-2-amino-11b-methyl-4,4a,5,6,7,11b-hexahydro-3-thia-1-aza-dibenzo[a,c]cyclohepten-10-yl)-amide, 2,2,2-trifluoroacetate], for which the IC50 stood at 0.034 µM.

Turning to `NC1=N[C@@H]2c3cc(-c4cncnc4)cc(F)c3OCC[C@@H]2CS1` (relative stereo) [Example 4, rel-(4aS,11bS)-8-fluoro-10-pyrimidin-5-yl-4a,5,6,11b-tetrahydro-4H-7-oxa-3-thia-1-aza-dibenzo[a,c]cyclohepten-2-ylamine], the IC50 is over 30 µM.

In the case of `C[C@]12N=C(N)SC[C@H]1CCc1ccc(-c3cncnc3)cc12` (relative stereo) [Example 5, rel-(4aS,10bS)-10b-Methyl-9-(pyrimidin-5-yl)-4a,5,6,10b-tetrahydro-4H-naphtho[1,2-d][1,3]thiazin-2-amine, bis(2,2,2-trifluoroacetate)], the 50% inhibitory concentration (IC50) was 4.6 µM.

For the compound `C[C@]12N=C(N)SC[C@H]1CCc1ccc(-c3cncc(Cl)c3)cc12` (relative stereo) [Example 6, rel-(4aS,10bS)-9-(5-Chloropyridin-3-yl)-10b-methyl-4a,5,6,10b-tetrahydro-4H-naphtho[1,2-d][1,3]thiazin-2-amine bis(2,2,2-trifluoroacetate)], the IC50 came out at 2.6 µM.

On to `C[C@]12N=C(N)SC[C@H]1CCc1ccc(NC(=O)c3ccc(Cl)cn3)cc12` (relative stereo) [Example 7, rel-N-((4aS,10bS)-2-Amino-10b-methyl-4a,5,6,10b-tetrahydro-4H-naphtho[1,2-d][1,3]thiazin-9-yl)-5-chloropicolinamide, 2,2,2-trifluoroacetate], for which the IC50 came to 1.1 µM.

For the compound `C[C@]12N=C(N)SC[C@H]1CCc1ccc(NC(=O)c3ncc(F)cc3F)cc12` (relative stereo) [Example 8, rel-N-((4aS,10bS)-2-Amino-10b-methyl-4a,5,6,10b-tetrahydro-4H-naphtho[1,2-d][1,3]thiazin-9-yl)-3,5-difluoropicolinamide, 2,2,2-trifluoroacetate], the half-maximal inhibitory concentration (IC50) is 3.1 µM.

Regarding `C[C@]12N=C(N)SC[C@H]1CCc1ccc(NC(=O)c3ccc(F)cn3)cc12` (relative stereo) [Example 9, rel-N-((4aS,10bS)-2-amino-10b-methyl-4a,5,6,10b-tetrahydro-4H-naphtho[1,2-d][1,3]thiazin-9-yl)-5-fluoropicolinamide, 2,2,2-trifluoroacetate], the IC50 was 2.1 µM.

Take `C[C@]12N=C(N)SC[C@H]1CCc1ccc(Br)cc12` (relative stereo) [Example 10, rel-(4aS,10bS)-9-Bromo-10b-methyl-4a,5,6,10b-tetrahydro-4H-naphtho[1,2-d][1,3]thiazin-2-amine]: the IC50 came to 13 µM.

Regarding `COc1cncc(-c2ccc3c(c2)[C@@]2(C)N=C(N)SC[C@H]2CCC3)c1` (relative stereo) [Example 11, rel-(4aS,11bS)-10-(5-methoxypyridin-3-yl)-11b-methyl-4,4a,5,6,7,11b-hexahydrobenzo[6,7]cyclohepta[1,2-d][1,3]thiazin-2-amine, bis(2,2,2-trifluoroacetate)], the IC50 was 3.4 µM.

Turning to `COc1cccc(-c2ccc3c(c2)[C@@]2(C)N=C(N)SC[C@H]2CCC3)c1` (relative stereo) [Example 12, rel-(4aS,11bS)-10-(3-methoxyphenyl)-11b-methyl-4,4a,5,6,7,11b-hexahydrobenzo[6,7]cyclohepta[1,2-d][1,3]thiazin-2-amine, 2,2,2-trifluoroacetate], the IC50 was determined as 3.4 µM.

For the compound `C[C@]12N=C(N)SC[C@H]1CCCc1ccc(-c3cncc(Cl)c3)cc12` (relative stereo) [Example 13, rel-(4aS,11bS)-10-(5-Chloropyridin-3-yl)-11b-methyl-4,4a,5,6,7,11b-hexahydrobenzo[6,7]cyclohepta[1,2-d][1,3]thiazin-2-amine, bis(2,2,2-trifluoroacetate)], the IC50 turned out to be 3.1 µM.

In the case of `C[C@]12N=C(N)SC[C@H]1CCCc1ccc(-c3cncc(F)c3)cc12` (relative stereo) [Example 14, rel-(4aS,11bS)-10-(5-fluoropyridin-3-yl)-11b-methyl-4,4a,5,6,7,11b-hexahydrobenzo[6,7]cyclohepta[1,2-d][1,3]thiazin-2-amine, bis(2,2,2-trifluoroacetate)], the IC50 turned out to be 2.1 µM.

On to `CC#Cc1cncc(-c2ccc3c(c2)[C@@]2(C)N=C(N)SC[C@H]2CCC3)c1` (relative stereo) [Example 15, rel-(4aS,11bS)-11b-Methyl-10-(5-(prop-1-yn-1-yl)pyridin-3-yl)-4,4a,5,6,7,11b-hexahydrobenzo[6,7]cyclohepta[1,2-d][1,3]thiazin-2-amine, bis(2,2,2-trifluoroacetate)], for which the IC50 is 3.6 µM.

Take `C[C@]12N=C(N)SC[C@H]1CCCc1ccc(Br)cc12` (relative stereo) [Example 16]: the 50% inhibitory concentration (IC50) was 2.5 µM.

Regarding `C[C@]12N=C(N)SC[C@H]1COc1cc(F)c(-c3cncnc3)cc12` (relative stereo) [Example 17, rel-(4aR,10bS)-8-Fluoro-10b-methyl-9-(pyrimidin-5-yl)-4,4a,5,10b-tetrahydrochromeno[4,3-d][1,3]thiazin-2-amine, bis(2,2,2-trifluoroacetate)], the IC50 was 3.2 µM.

Consider `C[C@]12N=C(N)SC[C@H]1COc1cc(F)c(NC(=O)c3ccc(Cl)cn3)cc12` (relative stereo) [Example 18, rel-N-((4aR,10bS)-2-Amino-8-fluoro-10b-methyl-4,4a,5,10b-tetrahydrochromeno[4,3-d][1,3]thiazin-9-yl)-5-chloropicolinamide, 2,2,2-trifluoroacetate], for which the IC50 is 6.1 µM.

`C[C@]12N=C(N)SC[C@H]1CCc1ccc(-c3cn[nH]c3)cc12` (relative stereo) [Example 19, rel-(4aS,10bS)-10b-Methyl-9-(1H-pyrazol-4-yl)-4a,5,6,10b-tetrahydro-4H-naphtho[1,2-d][1,3]thiazin-2-amine, bis(2,2,2-trifluoroacetate)]: the IC50 came out at 8 µM.

`Cc1cc(-c2ccc3c(c2)[C@@]2(C)N=C(N)SC[C@H]2CC3)n(C)n1` (relative stereo) [Example 20, rel-(4aS,10bS)-9-(1,3-Dimethyl-1H-pyrazol-5-yl)-10b-methyl-4a,5,6,10b-tetrahydro-4H-naphtho[1,2-d][1,3]thiazin-2-amine, bis(2,2,2-trifluoroacetate)]: the IC50 was over 30 µM.

As for `CC#Cc1cncc(-c2ccc3c(c2)[C@@]2(C)N=C(N)SC[C@H]2CC3)c1` (relative stereo) [Example 21, rel-(4aS,10bS)-10b-methyl-9-(5-(prop-1-yn-1-yl)pyridin-3-yl)-4,5,6,10b-tetrahydro-4H-naphtho[1,2-d][1,3]thiazin-2-amine, bis(2,2,2-trifluoroacetate)], the IC50 is 1.8 µM.

With `CC#Cc1cncc(-c2ccc3c(c2)[C@@]2(C)N=C(N)SC[C@H]2CCO3)c1` (relative stereo) [Example 22, rel-(4aS,11bS)-11b-methyl-10-(5-(prop-1-yn-1-yl)pyridin-3-yl)-4a,5,6,11b-tetrahydro-4H-benzo[2,3]oxepino[4,5-d][1,3]thiazin-2-amine, bis(2,2,2-trifluoroacetate)], the IC50 turned out to be 0.96 µM.

As to `Cn1cc(-c2ccc3c(c2)[C@@]2(C)N=C(N)SC[C@H]2CCO3)cn1` (relative stereo) [Example 23, rel-(4aS,11bS)-11b-Methyl-10-(1-methyl-1H-pyrazol-4-yl)-4a,5,6,11b-tetrahydro-4H-benzo[2,3]oxepino[4,5-d][1,3]thiazin-2-amine, bis(2,2,2-trifluoroacetate)], the IC50 is 5.1 µM.

On to `C[C@]12N=C(N)SC[C@H]1CCOc1ccc(-c3cn[nH]c3)cc12` (relative stereo) [Example 24, rel-(4aS,11bS)-11b-methyl-10-(1H-pyrazol-4-yl)-4a,5,6,11b-tetrahydro-4H-benzo[2,3]oxepino[4,5-d][1,3]thiazin-2-amine, bis(2,2,2-trifluoroacetate)], for which the IC50 stood at 8.1 µM.

As to `C[C@]12N=C(N)SC[C@H]1CCOc1ccc(-c3cnoc3)cc12` (relative stereo) [Example 25, rel-(4aS,11bS)-10-(Isoxazol-4-yl)-11b-methyl-4a,5,6,11b-tetrahydro-4H-benzo[2,3]oxepino[4,5-d][1,3]thiazin-2-amine, 2,2,2-trifluoroacetate salt], the IC50 came out at 18 µM.
